Reference: patent publication US20240299384A1, “METHODS FOR TREATING PULMONARY HYPERTENSION IN PATIENTS WITH LEFT VENTRICULAR ASSIST DEVICE IMPLANTATION” (ACTELION PHARMACEUTICALS LTD, priority 2021, published 2024)

System: patients with PH post-LVAD implantation
Test: Phase 2 placebo-controlled study in PH post-LVAD implantation: right heart catheterization hemodynamics (PVR by thermodilution)
Format: in vivo, human
Protocol: This is a double-blind, placebo-controlled, multicenter, parallel-group Phase 2 study assessing the efficacy and safety of macitentan in PH post-LVAD implantation. Approximately 57 adult patients with PH post-LVAD implantation were randomized (1:1) to receive either macitentan 10 mg, or matching placebo, once daily orally.
After implantation of the LVAD, patients meet baseline hemodynamic criteria of PH via RHC during the last measurement prior to the first dose of drug, defined as mPAP≥25 mmHg at rest and PAWP≤18 mmHg and PVR>3 WU. Patients are randomized within 90 days of surgical implantation of LVAD and within 14 days of Baseline RHC.
• (i) Primary efficacy endpoint: The primary efficacy endpoint is PVR ratio of Week 12 to Baseline. PVR is obtained by the thermodilution method. See, Table 7 for the FAS, Table 8 for the ES, and Table 9 for the PPS.
An RHC conducted prior to signing the Informed Consent may be accepted as the Baseline RHC. Baseline RHC is performed by the thermodilution method, after LVAD implantation and prior to first dose of treatment (which occurs within 90 days post-surgical implantation of LVAD). Randomization (Visit 2) is within 14 days of Baseline RHC. Patients are excluded if they were treated with ERAs, PDE5 inhibitors, i.v., s.c., or oral prostanoids, or guanylate cyclase stimulators within 7 days prior to Baseline RHC or treatment initiation. Patients are excluded if they were treated with inhaled prostanoids (e.g., iloprost, epoprostenol), nitric oxide or i.v. inotropes or vasopressors within 24 h prior to Baseline RHC or treatment initiation. LVAD pump speed/flow rate may be adjusted during the treatment period and during the Baseline RHC.
An RHC is repeated at Week 12, or within 7 days of permanent discontinuation of treatment if prior to Week 12. The Week 12 RHC is performed by the thermodilution method, and not within 24 h of treatment with i.v. inotropes or vasopressors.
The following variables also are measured: pulse rate, PAWP, mRAP, systolic/diastolic/mean PAP, CO, and SVO2 and non-invasive mean, SBP and DBP if available. PVR is calculated. CO measurements, and PVR calculations, during both Baseline and Week 12 RHC is obtained via the thermodilution method. All primary end point calculations is based on thermodilution method-calculated PVR.
The following hemodynamic variables are calculated: PVR, TPR, and CI.
The primary efficacy variable is PVR ratio of Week 12 to Baseline. PVR [WU] is calculated as (mPAP-PAWP)/CO.
The ratio of Week 12 to Baseline PVR is log-transformed (base e) and analyzed using an analysis of covariance (ANCOVA) with a factor for treatment group and a covariate for Baseline log PVR (macitentan vs. placebo). The treatment group difference (on log scale) and its 95% CLs are estimated based on the model. The geometric mean ratio (GMR; macitentan vs. placebo) and its 95% confidence interval are obtained by exponentiation. The null hypothesis is rejected if the entire 95% confidence interval is below one.
The treatment effect is expressed as (GMR-1)×100%, where a negative value indicates a reduction of PVR in the macitentan group as compared to the placebo group.

[1] = 10 mg once daily, Week 12: Baseline, FAS, n 27
[2] = 10 mg once daily, post-hoc analysis
[3] = PVR calculated by programming, ES sensitivity analysis, 10 mg once daily, Week 12
[4] = PVR calculated by programming, PPS sensitivity analysis, 10 mg once daily, Week 12
[5] = PVR calculated by programming, primary analysis, FAS, 10 mg once daily, Week 12
[6] = PVR reported by INV, sensitivity analysis, FAS, 10 mg once daily, Week 12

CCCNS(=O)(=O)Nc1ncnc(OCCOc2ncc(Br)cn2)c1-c1ccc(Br)cc1 [Macitentan, propylsulfamic acid [5-(4-bromo-phenyl)-6-[2-(5-bromo-pyrimidin-2-yloxy)-ethoxy]-pyrimidin-4-yl]-amide]
DPG, Least squares mean change from baseline (10 mg once daily, Day 84 or EOT, FAS, n 23): −6.0383 mmHg | TPG, Least squares mean change from baseline (10 mg once daily, Day 84 or EOT, FAS, n 24): −7.6521 mmHg | Change in CI, Comparison to Placebo, Difference of least squares mean (10 mg once daily, FAS): 0.1209 L/min/m^2 | Change in CO, Comparison to Placebo, Difference of least squares mean (10 mg once daily, FAS): 0.2064 L/min | Change in DPG, Comparison to Placebo, Difference of least squares mean (10 mg once daily, FAS): −2.7136 mmHg | Change in PAWP, Comparison to Placebo, Difference of least squares mean (10 mg once daily, FAS): 2.3514 mmHg | Change in SvO2, Comparison to Placebo, Difference of least squares mean (10 mg once daily, FAS): 0.4285% | Change in TPG, Comparison to Placebo, Difference of least squares mean (10 mg once daily, FAS): −2.7022 mmHg | Change in TPR, Comparison to Placebo, Difference of least squares mean (10 mg once daily, FAS): −0.4422 mmHg min/L | mPAP (end-expiratory mean line), Comparison to Placebo, Difference of least squares mean (10 mg once daily, FAS): −0.3052 mmHg | mRAP, Comparison to Placebo, Difference of least squares mean (10 mg once daily, FAS): 2.1396 mmHg | DPG at Day 84 or EOT, mean (SD) (10 mg once daily, FAS, n 23): 3.87 (5.619) mmHg | Change in CI at Day 84 or EOT compared to Baseline, Least squares mean (10 mg once daily, FAS, n 24): 0.1284 L/min/m^2 | Change in CO at Day 84 or EOT compared to Baseline, Least squares mean (10 mg once daily, FAS, n 24): 0.3655 L/min | Change in PAWP at Day 84 or EOT compared to Baseline, Least squares mean (10 mg once daily, FAS, n 24): 3.4038 mmHg | Change in SvO2 at Day 84 or EOT compared to Baseline, Least squares mean (10 mg once daily, FAS, n 24): 4.7801% | Change in TPR at Day 84 or EOT compared to Baseline, Least squares mean (10 mg once daily, FAS, n 24): −1.4175 mmHg min/L | PVR at Week 12/EOT, Mean (std) (10 mg once daily, FAS, n 24): 2.555 (1.0607) WU | PVR at Week 12/EOT, Median (10 mg once daily, FAS, n 24): 2.644 WU | TPG at Day 84 or EOT, mean (SD) (10 mg once daily, FAS, n 24): 12.13 (4.902) mmHg | mPAP (end-expiratory mean line), change from baseline, Least squares mean (10 mg once daily, FAS, n 24): −4.2251 mmHg | mRAP, change from baseline, Least squares mean (10 mg once daily, FAS, n 24): 0.6222 mmHg | Change in mPAP at Day 84 or EOT compared to Baseline, Least squares mean (10 mg once daily, FAS, n 24, second mPAP section of Table 11): −4.8854 mmHg | Change in TPG, Comparison to Placebo, Difference of least squares mean (10 mg once daily, FAS, listed as macitentan): −2.7 mmHg | Change in mPAP, Comparison to Placebo, Difference of least squares mean (10 mg once daily, FAS, second mPAP section of Table 11): −1.3035 mmHg | reduction in PVR for macitentan vs placebo (10 mg once daily, Week 12): 26% | PVR Ratio to Baseline, Mean (std) [1]: 0.585 (0.2280) | PVR Ratio to Baseline, Median [1]: 0.573 | patients with postbaseline PVR<3 WU, number [2]: 16 | patients with postbaseline PVR<3 WU, percent [2]: 66.7% | PVR (Geometric mean ratio − 1) × 100% [3]: −26.3% | PVR Geometric Mean Ratio, comparison to placebo [3]: 0.7371 | PVR (Geometric mean ratio − 1) × 100% [4]: −37.6% | PVR Geometric Mean Ratio, comparison to placebo [4]: 0.6236 | PVR (Geometric mean ratio − 1) × 100% [5]: −26.1% | PVR Geometric Mean Ratio, comparison to placebo [5]: 0.7393 | PVR Geometric Mean Ratio, comparison to placebo (PVR calculated by programming, primary analysis, FAS, 10 mg once daily, Week 12, listed as macitentan): 0.74 | PVR (Geometric mean ratio − 1) × 100% [6]: −26.1% | PVR Geometric Mean Ratio, comparison to placebo [6]: 0.7386 | effect on PVR in words (early post-LVAD population): significantly reduced PVR | LV filling in words (from PAWP and CO data): improved LV filling | proportion with postbaseline PVR<3 WU (patients with baseline PVR<4 WU, n=10): 90.0% | proportion with postbaseline PVR<3 WU (patients with baseline PVR>4 WU, n=14): 50.0%
